Experiments:
[1] = system: Human fibroblasts, Detroit 551 ATCC CCL III; assay: Stimulation of collagen synthesis in human fibroblast cultures (Sircol assay); assay type: cell-based; conditions: 24 h
Source text: The scope of the test has been the evaluation and the comparison of the potential stimulation exerted by the test substances on the expression of collagen and elastin in “in vitro” cultures of skin-derived cells, such as fibroblasts. The test in question, even though conducted “in vitro”, can be considered to be predictive of the effects of use of the same substances “in vivo”. […] The samples have been dissolved directly in the culture medium. Each sample has been tested in duplicate and the experiments have been repeated twice. The parameters of interest have been determined after 24 hours on separate plates. Untreated cell cultures have been used as controls. A commercially available kit (Sircol™, biodye science) which uses the capacity of the stain Sirius Red to interact with the basic side chains of the aminoacids present in collagen itself, has been used for collagen assays. De novo collagen synthesis has been evaluated in the culture medium following treatment with the test substances, following the protocol provided with the kit, and by using the calibration curve obtained employing the collagen standard contained in turn in the kit. Evaluation of the effects of the substances tested, at the various concentrations, on fibroblast cultures, has been expressed as the absolute and percent increase or decrease of collagen and elastin expression, with respect to the corresponding control culture, after 24 hours of incubation. The percentage difference increase or decrease of the effects exerted by CA and NAG, at corresponding concentrations, have then been calculated, with consequent evaluation of their potential statistical significance by means of the test Student “t” test.

hyaluronate synthetase = conditions: plasma membrane fractions of human skin fibroblasts; cited from earlier work
[2] = system: Human keratinocyte primary culture: HEKA; assay: Stimulation of protein synthesis in human keratinocyte cultures (Lowry method); assay type: cell-based; conditions: keratinocytes
Description: (§1) The following have been used: • Human fibroblasts, Detroit 551 ATCC CCL III from LGC Promochem (Milan, Italy); • Human keratinocyte primary culture: HEKA, Cascade Biologics, cat. 005-5C. Test substances and concentrations
(§2) The substances and concentrations tested are those reported below (on both fibroblasts and keratinocytes): • CA: 0.13, 0.66, 1.32, and 2.64 mg/ml • NAG: 0.1, 0.5, 1.0, and 2.0 mg/ml
(§3) The method is identical to that already described for collagen and elastin with the difference that, following the addition of the test substances into the culture medium, the medium has been substituted daily for three days. Each sample has been tested in duplicate and the experiments have been repeated twice. The parameter of interest, i.e. protein synthesis, has been evaluated at 24, 48 and 72 hours on separate plates. Untreated cell cultures have been used as controls.
(§4) Protein has been assayed using the Lowry method [Lowry et al. 1951] consisting of a Biuret reduction reaction envisaging the use of Folin-Ciocalteau reagent as chromophore, with a yellow to blue colour change and spectrophotometric measurement at 750 nm [Creighton et al. 1984; Sengupta et al. 1993].
(§5) The protein content of the cultures in question has been obtained from comparison of their optical densities with a titration curve made using albumin as a protein standard.
(§6) Evaluation of the effect of the substances tested, at the various concentrations and times, on cultures of both fibroblasts and keratinocytes has been expressed in both absolute terms (expressed protein production in mg/ml) and as percentage increase or decrease with respect to control cultures.
(§7) The percentage difference increase or decrease of the effects exerted by CA and NAG, over various days and at the corresponding concentrations, have then been calculated, with evaluation of their potential statistical significance by means of the test Student “t” test.

[3] = system: Human fibroblasts, Detroit 551 ATCC CCL III; assay: Stimulation of protein synthesis in human fibroblast cultures (Lowry method); assay type: cell-based
Description: as §1, §2, §3, §4, §5, §6, §7

## CC(=O)N[C@@H](C=O)[C@@H](O)[C@H](O)[C@H](O)CO [NAG, N-acetyl-2-amino-2 deoxyglucose]
[1]; NAG 0.50 mg/ml
  Collagen (%) (Diff. from baseline): +1.64%
  Collagen(μg/ml) (Diff. from baseline): +0.07 μg/ml
[1]; NAG 1.00 mg/ml
  Collagen (%) (Diff. from baseline): +30.28%
  Collagen(μg/ml) (Diff. from baseline): +1.29 μg/ml
[1]; NAG 1.50 mg/ml
  Collagen (%) (Diff. from baseline): +36.15%
  Collagen(μg/ml) (Diff. from baseline): +1.54 μg/ml
[1]; NAG 2.00 mg/ml
  Collagen (%) (Diff. from baseline): +32.86%
  Collagen(μg/ml) (Diff. from baseline): +1.33 μg/ml
[1]; NAG 2.50 mg/ml
  Collagen (%) (Diff. from baseline): +47.65%
  Collagen(μg/ml) (Diff. from baseline): +2.03 μg/ml
Hyaluronate synthetase
  activity of the enzyme hyaluronate synthetase: stimulates
[2]; NAG 0.10 mg/ml, 24 hours
  Expr. prot. from NAG % incr. over baseline: −34.7%
  Expr. prot. from NAG (mg/ml) - Mean +/− st. dev.: 0.16 ± 0.037 mg/mL
[2]; NAG 0.10 mg/ml, 48 hours
  Expr. prot. from NAG (mg/ml) - Mean +/− st. dev.: 0.42 ± 0.15 mg/mL
[2]; NAG 0.10 mg/ml, 72 hours
  Expr. prot. from NAG % incr. over baseline: +15.5%
  Expr. prot. from NAG (mg/ml) - Mean +/− st. dev.: 0.67 ± 0.09 mg/mL
[2]; NAG 0.50 mg/ml, 24 hours
  Expr. prot. from NAG % incr. over baseline: −10.2%
  Expr. prot. from NAG (mg/ml) - Mean +/− st. dev.: 0.22 ± 0.039 mg/mL
[2]; NAG 0.50 mg/ml, 48 hours
  Expr. prot. from NAG (mg/ml) - Mean +/− st. dev.: 0.40 ± 0.12 mg/mL
[2]; NAG 0.50 mg/ml, 72 hours
  Expr. prot. from NAG % incr. over baseline: +10.3%
  Expr. prot. from NAG (mg/ml) - Mean +/− st. dev.: 0.64 ± 0.12 mg/mL
[2]; NAG 1.00 mg/ml, 24 hours
  Expr. prot. from NAG % incr. over baseline: +44.9%
  Expr. prot. from NAG (mg/ml) - Mean +/− st. dev.: 0.36 ± 0.047 mg/mL
[2]; NAG 1.00 mg/ml, 48 hours
  Expr. prot. from NAG % incr. over baseline: +41.2%
  Expr. prot. from NAG (mg/ml) - Mean +/− st. dev.: 0.48 ± 0.11 mg/mL
[2]; NAG 1.00 mg/ml, 72 hours
  Expr. prot. from NAG % incr. over baseline: +20.7%
  Expr. prot. from NAG (mg/ml) - Mean +/− st. dev.: 0.70 ± 0.08 mg/mL
[2]; NAG 2.00 mg/ml, 24 hours
  Expr. prot. from NAG (mg/ml) - Mean +/− st. dev.: 0.38 ± 0.050 mg/mL
[2]; NAG 2.00 mg/ml, 48 hours
  Expr. prot. from NAG % incr. over baseline: +38.2%
  Expr. prot. from NAG (mg/ml) - Mean +/− st. dev.: 0.47 ± 0.12 mg/mL
[2]; NAG 2.00 mg/ml, 72 hours
  Expr. prot. from NAG % incr. over baseline: +43.1%
  Expr. prot. from NAG (mg/ml) - Mean +/− st. dev.: 0.83 ± 0.070 mg/mL
[3]; NAG 0.10 mg/ml, 24 hours
  Expr. prot. from NAG % incr. over baseline: −14.6%
  Expr. prot. from NAG (mg/ml) - Mean +/− st. dev.: 0.70 ± 0.11 mg/mL
[3]; NAG 0.10 mg/ml, 48 hours
  Expr. prot. from NAG % incr. over baseline: −7.8%
  Expr. prot. from NAG (mg/ml) - Mean +/− st. dev.: 0.95 ± 0.08 mg/mL
[3]; NAG 0.10 mg/ml, 72 hours
  Expr. prot. from NAG % incr. over baseline: −6.4%
  Expr. prot. from NAG (mg/ml) - Mean +/− st. dev.: 1.03 ± 0.18 mg/mL
[3]; NAG 0.50 mg/ml, 24 hours
  Expr. prot. from NAG % incr. over baseline: +31.7%
  Expr. prot. from NAG (mg/ml) - Mean +/− st. dev.: 1.08 ± 0.29 mg/mL
[3]; NAG 0.50 mg/ml, 48 hours
  Expr. prot. from NAG % incr. over baseline: −9.7%
  Expr. prot. from NAG (mg/ml) - Mean +/− st. dev.: 0.93 ± 0.08 mg/mL
[3]; NAG 0.50 mg/ml, 72 hours
  Expr. prot. from NAG % incr. over baseline: +3.6%
  Expr. prot. from NAG (mg/ml) - Mean +/− st. dev.: 1.14 ± 0.16 mg/mL
[3]; NAG 1.00 mg/ml, 24 hours
  Expr. prot. from NAG % incr. over baseline: +35.4%
  Expr. prot. from NAG (mg/ml) - Mean +/− st. dev.: 1.11 ± 0.22 mg/mL
[3]; NAG 1.00 mg/ml, 48 hours
  Expr. prot. from NAG % incr. over baseline: −21.4%
  Expr. prot. from NAG (mg/ml) - Mean +/− st. dev.: 0.81 ± 0.11 mg/mL
[3]; NAG 1.00 mg/ml, 72 hours
  Expr. prot. from NAG % incr. over baseline: −5.5%
  Expr. prot. from NAG (mg/ml) - Mean +/− st. dev.: 1.04 ± 0.20 mg/mL
[3]; NAG 2.00 mg/ml, 24 hours
  Expr. prot. from NAG (mg/ml) - Mean +/− st. dev.: 1.24 ± 0.17 mg/mL
[3]; NAG 2.00 mg/ml, 48 hours
  Expr. prot. from NAG % incr. over baseline: +6.8%
  Expr. prot. from NAG (mg/ml) - Mean +/− st. dev.: 1.10 ± 0.20 mg/mL
[3]; NAG 2.00 mg/ml, 72 hours
  Expr. prot. from NAG % incr. over baseline: +0.91%
  Expr. prot. from NAG (mg/ml) - Mean +/− st. dev.: 1.11 ± 0.19 mg/mL

Source: patent US20100028395A1, “COMPOSITIONS CONTAINING N-ACETYLGLUCOSAMINE FOR USE IN DERMO-COSMETOLOGY AND AESTHETIC MEDICINE” (ROTTAPHARM S.P.A., priority 2007, published 2010)
